Laboratory results reported in patent EP0397567A1, “Antitumor substance, process for its preparation and pharmaceutical compositions containing it” (RHONE-POULENC SANTE, priority 1989, dated 1990).

Assay: antitumor properties (studies mentioned, no method described)
Settings: qualitative statement compared with girolline; no test system, dose or model printed

Row | Structure (SMILES) | propriétés antitumorales
1 | NC[C@@H](Cl)[C@H](O)c1c[nH]c(N)n1 (racemic) [racémique thréo, amino-3 (amino-2 1H-imidazolyl-4)-1 chloro-2 propanol-1-(1RS,2RS)] | conserve les propriétés antitumorales remarquables de la girolline
2 | NC[C@H](Cl)[C@H](O)c1c[nH]c(N)n1 (racemic) [racémique érythro] | totalement inactifs
